# Key:
# Assay in all cases: Test D pre-/postemergence controlled growth environment herbicide test
# Format in all cases: in vivo
# Conditions in all cases: scale 0 to 100
# [1] = test system: downy bromegrass (Bromus tectorum)
# How it was run: (§1)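 Visual injury scored 0–100 (100 = complete control) against untreated controls, 14–21 d after treatment in a controlled growth environment. Compounds, formulated in non-phytotoxic solvent with surfactant, were applied preemergence to silt loam soil or postemergence to 1- to 4-leaf plants (2–18 cm) in peat-based medium.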
# [2] = test system: deadnettle (henbit deadnettle, Lamium amplexicaule)
# How it was run: as §1
# [3] = test system: lambsquarters (Chenopodium album)
# How it was run: as §1
# [4] = test system: canarygrass (Phalaris minor)
# How it was run: as §1
# [5] = test system: barley, winter (winter barley, Hordeum vulgare)
# How it was run: as §1
# [6] = test system: field violet (Viola arvensis)
# How it was run: as §1
# [7] = test system: barley, spring (spring barley, Hordeum vulgare)
# How it was run: as §1
# [8] = test system: speedwell (bird's-eye speedwell, Veronica persica)
# How it was run: as §1
# [9] = test system: buckwheat, wild (wild buckwheat, Polygonum convolvulus)
# How it was run: as §1
# [10] = test system: wheat, winter (winter wheat, Triticum aestivum)
# How it was run: as §1
# [11] = test system: windgrass (Apera spica-venti)
# How it was run: as §1
compound,measurement,setting,value
"COc1cc(=O)n(-c2ccc(F)cc2)nc1Cc1ccnc(C(F)(F)F)c1 [Compound 17, 2-(4-fluorophenyl)-5-methoxy-6-[[2-(trifluoromethyl)-4-pyridinyl]methyl]-3 (2H)-pyridazinone]",Plant response rating,"[1]; Postemergence, 31 g ai/ha",10
same,Plant response rating,"[1]; Postemergence, 62 g ai/ha",10
same,Plant response rating,"[1]; Postemergence, 125 g ai/ha",15
same,Plant response rating,"[1]; Postemergence, 250 g ai/ha",25
same,Plant response rating,"[1]; Postemergence, 500 g ai/ha",30
same,Plant response rating,"[1]; Preemergence, 31 g ai/ha",10
same,Plant response rating,"[1]; Preemergence, 62 g ai/ha",10
same,Plant response rating,"[1]; Preemergence, 125 g ai/ha",15
same,Plant response rating,"[1]; Preemergence, 250 g ai/ha",30
same,Plant response rating,"[1]; Preemergence, 500 g ai/ha",50
same,Plant response rating,"[2]; Postemergence, 31 g ai/ha",50
same,Plant response rating,"[2]; Postemergence, 62 g ai/ha",50
same,Plant response rating,"[2]; Postemergence, 125 g ai/ha",65
same,Plant response rating,"[2]; Postemergence, 250 g ai/ha",98
same,Plant response rating,"[2]; Postemergence, 500 g ai/ha",100
same,Plant response rating,"[2]; Preemergence, 31 g ai/ha",100
same,Plant response rating,"[2]; Preemergence, 62 g ai/ha",100
same,Plant response rating,"[2]; Preemergence, 125 g ai/ha",100
same,Plant response rating,"[2]; Preemergence, 250 g ai/ha",100
same,Plant response rating,"[2]; Preemergence, 500 g ai/ha",100
same,Plant response rating,"[3]; Postemergence, 31 g ai/ha",10
same,Plant response rating,"[3]; Postemergence, 62 g ai/ha",50
same,Plant response rating,"[3]; Postemergence, 125 g ai/ha",80
same,Plant response rating,"[3]; Postemergence, 250 g ai/ha",95
same,Plant response rating,"[3]; Postemergence, 500 g ai/ha",100
same,Plant response rating,"[3]; Preemergence, 31 g ai/ha",90
same,Plant response rating,"[3]; Preemergence, 62 g ai/ha",95
same,Plant response rating,"[3]; Preemergence, 250 g ai/ha",90
same,Plant response rating,"[3]; Preemergence, 500 g ai/ha",90
same,Plant response rating,"[4]; Postemergence, 31 g ai/ha",10
same,Plant response rating,"[4]; Postemergence, 62 g ai/ha",20
same,Plant response rating,"[4]; Postemergence, 125 g ai/ha",20
same,Plant response rating,"[4]; Postemergence, 250 g ai/ha",30
same,Plant response rating,"[4]; Postemergence, 500 g ai/ha",35
same,Plant response rating,"[4]; Preemergence, 31 g ai/ha",0
same,Plant response rating,"[4]; Preemergence, 62 g ai/ha",0
same,Plant response rating,"[4]; Preemergence, 125 g ai/ha",10
same,Plant response rating,"[4]; Preemergence, 250 g ai/ha",30
same,Plant response rating,"[4]; Preemergence, 500 g ai/ha",50
same,Plant response rating,"[5]; Postemergence, 31 g ai/ha",15
same,Plant response rating,"[5]; Postemergence, 62 g ai/ha",15
same,Plant response rating,"[5]; Postemergence, 125 g ai/ha",25
same,Plant response rating,"[5]; Postemergence, 250 g ai/ha",30
same,Plant response rating,"[5]; Postemergence, 500 g ai/ha",35
same,Plant response rating,"[5]; Preemergence, 31 g ai/ha",10
same,Plant response rating,"[5]; Preemergence, 62 g ai/ha",20
same,Plant response rating,"[5]; Preemergence, 125 g ai/ha",40
same,Plant response rating,"[5]; Preemergence, 250 g ai/ha",75
same,Plant response rating,"[5]; Preemergence, 500 g ai/ha",80
same,Plant response rating,"[6]; Postemergence, 31 g ai/ha",60
same,Plant response rating,"[6]; Postemergence, 62 g ai/ha",70
same,Plant response rating,"[6]; Postemergence, 125 g ai/ha",80
same,Plant response rating,"[6]; Postemergence, 250 g ai/ha",100
same,Plant response rating,"[6]; Postemergence, 500 g ai/ha",100
same,Plant response rating,"[6]; Preemergence, 31 g ai/ha",75
same,Plant response rating,"[6]; Preemergence, 62 g ai/ha",85
same,Plant response rating,"[6]; Preemergence, 125 g ai/ha",90
same,Plant response rating,"[6]; Preemergence, 250 g ai/ha",100
same,Plant response rating,"[6]; Preemergence, 500 g ai/ha",100
same,Plant response rating,"[7]; Postemergence, 31 g ai/ha",5
same,Plant response rating,"[7]; Postemergence, 62 g ai/ha",10
same,Plant response rating,"[7]; Postemergence, 125 g ai/ha",15
same,Plant response rating,"[7]; Postemergence, 250 g ai/ha",15
same,Plant response rating,"[7]; Postemergence, 500 g ai/ha",35
same,Plant response rating,"[7]; Preemergence, 31 g ai/ha",15
same,Plant response rating,"[7]; Preemergence, 62 g ai/ha",20
same,Plant response rating,"[7]; Preemergence, 125 g ai/ha",20
same,Plant response rating,"[7]; Preemergence, 250 g ai/ha",70
same,Plant response rating,"[7]; Preemergence, 500 g ai/ha",90
same,Plant response rating,"[8]; Postemergence, 31 g ai/ha",10
same,Plant response rating,"[8]; Postemergence, 62 g ai/ha",100
same,Plant response rating,"[8]; Postemergence, 125 g ai/ha",100
same,Plant response rating,"[8]; Postemergence, 250 g ai/ha",100
same,Plant response rating,"[8]; Postemergence, 500 g ai/ha",100
same,Plant response rating,"[8]; Preemergence, 31 g ai/ha",100
same,Plant response rating,"[8]; Preemergence, 62 g ai/ha",100
same,Plant response rating,"[8]; Preemergence, 125 g ai/ha",100
same,Plant response rating,"[8]; Preemergence, 250 g ai/ha",100
same,Plant response rating,"[8]; Preemergence, 500 g ai/ha",100
same,Plant response rating,"[9]; Postemergence, 31 g ai/ha",10
same,Plant response rating,"[9]; Postemergence, 62 g ai/ha",10
same,Plant response rating,"[9]; Postemergence, 125 g ai/ha",40
same,Plant response rating,"[9]; Postemergence, 250 g ai/ha",75
same,Plant response rating,"[9]; Postemergence, 500 g ai/ha",100
same,Plant response rating,"[9]; Preemergence, 31 g ai/ha",0
same,Plant response rating,"[9]; Preemergence, 62 g ai/ha",10
same,Plant response rating,"[9]; Preemergence, 125 g ai/ha",30
same,Plant response rating,"[9]; Preemergence, 250 g ai/ha",100
same,Plant response rating,"[9]; Preemergence, 500 g ai/ha",100
same,Plant response rating,"[10]; Postemergence, 31 g ai/ha",0
same,Plant response rating,"[10]; Postemergence, 62 g ai/ha",5
same,Plant response rating,"[10]; Postemergence, 125 g ai/ha",10
same,Plant response rating,"[10]; Postemergence, 250 g ai/ha",10
same,Plant response rating,"[10]; Postemergence, 500 g ai/ha",20
same,Plant response rating,"[10]; Preemergence, 31 g ai/ha",0
same,Plant response rating,"[10]; Preemergence, 62 g ai/ha",0
same,Plant response rating,"[10]; Preemergence, 125 g ai/ha",0
same,Plant response rating,"[10]; Preemergence, 250 g ai/ha",30
same,Plant response rating,"[10]; Preemergence, 500 g ai/ha",90
same,Plant response rating,"[11]; Postemergence, 31 g ai/ha",0
same,Plant response rating,"[11]; Postemergence, 62 g ai/ha",5
same,Plant response rating,"[11]; Postemergence, 125 g ai/ha",5
same,Plant response rating,"[11]; Postemergence, 250 g ai/ha",10
same,Plant response rating,"[11]; Postemergence, 500 g ai/ha",25
same,Plant response rating,"[11]; Preemergence, 31 g ai/ha",80
same,Plant response rating,"[11]; Preemergence, 62 g ai/ha",80
same,Plant response rating,"[11]; Preemergence, 125 g ai/ha",100
same,Plant response rating,"[11]; Preemergence, 250 g ai/ha",100
same,Plant response rating,"[11]; Preemergence, 500 g ai/ha",100
